Measurements taken from patent publication US9556225B2, “Peptide stimulator of cell survival and proliferation” (União Química Farmacêutica Nacional S/A, priority 2014, dated 2017).
Where no end group is shown, it is not given here.

Key:
[1] = system: Human umbilical vein endothelial cells (HUVEC); test: MTT cytotoxicity and cell viability assay; format: cell-based; details: 72 h; for cell viability (MTT), significance relative to untreated control (1% FBS): p<0.01
Method: For in vitro cell culture tests, the peptide (previously dissolved in water and stored at −20° C.) was resuspended, at the desired concentration, in culture medium supplemented with fetal bovine serum (FBS). The concentration of FBS was selected depending on the requirements of each experiment.
The MTT method was used (Mosmann, T., Rapid colorimetric assay for cellular growth and survival: application to proliferation and cytotoxicity assays. J Immunol Methods, 1983. 65(1-2): p. 55-63). The viability test was performed in culture plates of 96 wells. […] After 72 h, the supernatant was discarded and the cells washed twice with phosphate buffered saline (PBS) at pH 7.4 and incubated at 37° C. for 3 h with 100 μl of 0.5 mg/ml MTT reagent (3-(4,5-dimethylthiazol-2-yl)-2,5-diphenyl tetrazolium bromide) in PBS. The supernatant was removed and the reaction was stopped with 100 μl of dimethyl sulfoxide (DMSO). Absorbance values were determined at 540 nm using a SpectraMax™ 190 automatic plate reader (Molecular Devices, USA).
The results were expressed as a percentage of cell viability relative to the untreated control at time zero (initial number of cells). Absorbance values were determined at 540 nm. The results were expressed as the average ±standard error of the mean (SEM) of 5 independent experiments. Statistical significance between the groups were determined by a one-way ANOVA test (*: p<0.05, **: p<0.01).

[2] = system: human dermal fibroblasts (FN1); test: Cell proliferation by CFDA-SE staining, flow cytometry; format: cell-based; details: FN1 cells; for proliferation / cytoprotection (CFDA-SE staining): 1% FBS, 48 hours; for proliferation rate (CFDA-SE staining): 10% FBS, 48 h, p<0.001 versus control 10% FBS
Method: Quantitative assessment of cell proliferation was performed by staining cells with carboxyfluorescein succinimidyl ester (CFDA-SE), as described previously (Asquith, B., et al., Quantifying lymphocyte kinetics in vivo using carboxyfluorescein diacetate succinimidyl ester (CFSE). Proc Biol Sci, 2006. 273(1590): p. 1165-71; Lyons, A. B., Analysing cell division in vivo and in vitro using flow cytometric measurement of CFSE dye dilution. J Immunol Methods, 2000. 243(1-2): p. 147-54). CFDA-SE is a lipophilic dye which reacts with amino groups of peptides and proteins, forming a stable amide linkage, which can be detected using flow cytometry analysis. The CFDA-SE passively diffuses into cells. It is colorless and nonfluorescent until its acetate groups are cleaved by intracellular esterases to produce a highly fluorescent, amine reactive succinimidyl ester of carboxyfluorescein, which is well conserved and can be fixed with aldehyde fixatives. The excess reagent and unconjugated by products passively diffuse into the extracellular environment where they can be washed away. When parent cells divide, CFDA-SE dye is equally distributed to the daughter cells, which therefore have half of the fluorescence intensity of the parents. The reduction of fluorescence intensity of cell generations in cell proliferation is easily detected by flow cytometry.
For the assay, human dermal fibroblasts (FN1) cells were seeded in six-well plates (1×10^4 cells/well), incubated with […] CFDA—SE diluted in PBS, and cultured at 37° C. with 5% CO2 for 15 minutes protected from light, according to the manufacturer's instructions (Vybrant® CFDA SE Cell Tracer Kit, MolecularProbes). […] Subsequently, the cells were trypsinized and the cell buttons resuspended in 300 μl of FACS buffer with 2% paraformaldehyde and kept in the refrigerator until the moment of reading. Cell proliferation by CFDA—SE was estimated by the reduction in cell fluorescence. Fluorescence was determined for excitation at λ=492 nm and for emission at λ=517 nm (10000 events per sample) in a FACScalibur™ flow cytometry system (Becton and Dickson) using the CellQuest™ software. The parameters FSC (size) and SSC (granularity/complexity) was detected in linear scale and FL1-H on a logarithmic scale. Proliferation was analyzed using the program ModFit LT™ 2.0 (Verity Software House, Topsham, Me., USA). The figures are expressed as the average ±standard error of the mean (SEM) of 5 independent experiments (Student's t test).

[3] = system: FN1 fibroblasts; test: Cell cycle phases by propidium iodide flow cytometry; format: cell-based, human; details: 48 hours
Method: The distribution of cells in the various cell cycle phases was determined by the content or amount of propidium iodide (PI) incorporated into the cell, measured by flow cytometry (Vindelov, L. L., I. J. Christensen, and N. I. Nissen, Standardization of high-resolution flow cytometric DNA analysis by the simultaneous use of chicken and trout red blood cells as internal reference standards. Cytometry, 1983. 3(5): p. 328-31). […] After treatment, the FN1 cell suspensions were resuspended in 70% ethanol and kept in a freezer at −20° C. for subsequent analysis of cell cycle phases. At the time of the experiment, cells were incubated in a PBS solution: 950 μl of PBS, 40 μl of PI (1 mg/ml) and 10 μl of Rnase: (10 mg/ml), to assess the quantity and integrity of DNA in the cell cycle phases. The results obtained by the acquisition program CellQuest™ acquired on a FACScalibur™ flow cytometer (Becton and Dickson, USA) were analyzed by FACS ModFit™ 2.8. The DNA content was expressed as mean percentage±standard error of the mean (SEM) of 3 independent experiments (Student's t test) of cells distributed in the different cell cycle phases: apoptotic cells, G0/G1, S and G2/M.

[4] = system: FN1 cells; test: Detection of intracellular reactive oxygen and nitrogen species (ROS); format: cell-based, human; details: for ROS production: serum-deprived (1% FBS)
Method: The detection of reactive species was performed by the ROS Detection Kit (Enzo Life Sciences, Plymouth Meeting, Pa.) according to the manufacturer's instructions. This assay allows detecting ROS production in living cells by flow cytometry. The dye detection reagent reacts with hydrogen peroxide, peroxynitrite and hydroxyl radicals. FN1 cells at a density of 10^6/ml were plated and cultured in 6-well plates for 24 hours in incubator containing 5% CO2 at 37° C. […] Then, the cells were washed with wash buffer supplied by the manufacturer and centrifuged at 1500 rpm for 10 minutes. The supernatant was discarded and the cell button resuspended in 200 μl of PBS. The fluorescence was determined at λ=485 nm for excitation and emission λ=590 nm for a FACScalibur™ flow cytometry system using CellQuest™ software with the acquisition of 10,000 events having as parameters FSC (size) and SSC (granularity/complexity) linear scale and FL1/FL2 on logarithmic scales. The results were expressed as the mean±SEM (standard error of the mean) of 3 independent experiments.

[5] = system: FN1 fibroblasts; test: Ultrastructure of fibroblasts by transmission electron microscopy (TEM); format: cell-based, human; details: 1% FBS, 50 ng/ml, 48 hours
Description: Severe morphological changes in normal fibroblasts are observed after serum deprivation conditions consistent with those of apoptotic cell death. […] TEM provides ultra-structural evidence about the nature of cell death (Kulkarni, G. V. and C. A. McCulloch, Serum deprivation induces apoptotic cell death in a subset of Balb/c 3T3 fibroblasts. J Cell Sci, 1994. 107 (Pt 5): p. 1169-79).
Cells were washed 3 times with PBS and gently collected in a tube with the help of a cell scraper. The cell suspension was centrifuged, and the cell button re-suspended in a solution of 3% glutaraldehyde and 2% paraformaldehyde diluted in sodium cacodylate. The cell button was post-fixed in 1% solution of osmium tetroxide for 1 hour, washed with PBS and distilled water and dehydrated in a graded ethanol series (30, 60, 70, 80 and 100%). Finally, the epoxy resin was mixed with warm ethanol (1:1) for infiltration, and only the resin was used for the incorporation of cells (60° C./48 h). Ultrathin sections (50 nm) were cut with an ultramicrotome (Leica Ultracut™ UCT) and stained with 5% uranyl acetate in 50% ethanol and 2% aqueous solution of citrate. The obtained sections were photographed using a TEM (LEO™ 906E, Zeiss, […]) at an accelerating voltage of 80 kV.

[6] = system: collagen I; test: Extracellular matrix molecules by fluorescence microscopy; format: cell-based, human; details: FN1 cells, 50 ng/ml, 48 h, 10% FBS
Description: (§1) Previous studies have reported the importance of extracellular matrix components for maintaining cell survival of serum-deprived cells and that survival is enhanced by cell-cell contact. To confirm the synthesis of extracellular matrix molecules, fibroblast cultures were marked with antibodies specific for laminin and fibronectin following treatment with the synthetic peptide.
(§2) After treatment, the medium was removed and cells were washed with PBS and fixed with 3.7% paraformaldehyde for 10 minutes. Triton X-100 (0.1%) was added for 15 minutes for permeabilization of the plasma membrane, followed by addition of the primary antibody and incubation for 12 hours (overnight) in the dark at 4° C. The cells were washed with PBS, the secondary antibody was added and the cells were kept for 1 hour at room temperature in the dark. Antibodies were diluted according to the manufacturer's recommendation. After washing, the […] cell nuclei were stained with 4′,6-diamidino-2-phenylindole (DAPI) reagent (Invitrogen) and slides were mounted on coverslips containing 4 μl of antifade solution (Vectashield™, Vector-H1000, that serves to preserve fluorescence). Cells were viewed with an Axio™ Imager A1 fluorescence microscope (Carl Zeiss, Germany).
(§3) Primary antibodies in blocking buffer: 10% FBS, 1% BSA in TBS (0.1% Triton X-100 in PBS):
Mouse monoclonal to Collagen type I [Col-I] (abcam): 1/1000

[7] = system: fibronectin; test: as above; format: cell-based, human; details: FN1 cells, 50 ng/ml, 48 h, 10% FBS
Description: as §1, §2, §3
Rabbit polyclonal to Fibronectin (abcam): 2 μg/ml

[8] = system: laminin; test: as above; format: cell-based, human; details: FN1 cells, 50 ng/ml, 48 h, 10% FBS
Description: as §1, §2, §3
Rabbit polyclonal to Laminin alpha 4 (abcam): 1/500

[9] = system: vitronectin; test: as above; format: cell-based, human; details: FN1 cells, 50 ng/ml, 48 h, 10% FBS
Description: as §1, §2, §3
Mouse monoclonal [VN58-1] […]

[10] = 125 μg/ml, 25° C., sodium phosphate buffer, pH 6.0 to 8.0, 24 hours
Method: Measurement of the structural integrity of the peptide was carried out using sodium phosphate buffer at various pH values (6.0, 6.4, 6.8, 7.0, 7.4, 8.0) containing 125 μg/ml of the peptide. Peptide solutions were incubated overnight at room temperature (25° C.). Analyses of circular dichroism (CD) were performed on a J-810 spectropolarimeter controlled by Spectra Manager™ software (JASCO), using cuvettes with optical path length of 0.1 cm (Biotechnology Center—Instituto Butantan). The CD spectra were recorded in the range 183-260 nm every 0.1 nm. The spectrum of each sample was subtracted from the spectrum of the buffer without peptide.

[11] = 25 ng/ml, p<0.05 versus control 1% FBS
[12] = 50 ng/ml, p<0.001 versus control 1% FBS

## DYFKDGKDVN [LONO-Q]
[1]; 10% FBS, 50 ng/ml, p<0.05
  cellular proliferation (MTT), significance: statistically significant results
[1]; HUVECs, 1% FBS (serum deprivation), dose response
  cell viability (MTT): stimulated cell viability in a dose-dependent manner
[1]; HUVECs, 25 ng/ml
  cell viability (MTT), significance relative to untreated control (1% FBS): statistically significant results
[1]; HUVECs, 50 ng/ml
  cell viability (MTT), significance relative to untreated control (1% FBS): statistically significant results
[1]; normal conditions (10% FBS), dose response
  cellular proliferation (MTT): stimulated the cellular proliferation in a dose-dependent manner
[2]; [11]
  proliferation / cytoprotection (CFDA-SE staining): significant cytoprotection
[2]; [12]
  proliferation / cytoprotection (CFDA-SE staining): significant cytoprotection
[2]; 25 ng/ml
  proliferation rate (CFDA-SE staining): statistically significant increase in the proliferation rate
[2]; 50 ng/ml
  proliferation rate (CFDA-SE staining): statistically significant increase in the proliferation rate
[3]; 1% FBS, 50 ng/ml, n=3, mean±SEM, p<0.01 vs. control 1% FBS
  apoptotic cells (fragmented DNA): 8.1±1.1%
[3]; 1% FBS, 50 ng/ml, n=3, mean±SEM, p<0.05 vs. control 1% FBS
  cells in S phase of the cell cycle: 17.2±1.5%
[3]; 1% FBS, 25 or 50 ng/ml
  S phase of the cell cycle, dose dependence: apparent dose-dependent increase of the S phase
[3]; 10% FBS, 50 ng/ml, n=3, mean±SEM, p<0.05 vs. control 10% FBS
  cells in G2/M: 18.4±2.5%
[4]; normal cell growth (10% FBS)
  ROS generation: no statistically significant decrease in ROS generation
[4]; [11]
  ROS production: statistically significant decrease of ROS production
[4]; [12]
  ROS production: statistically significant decrease of ROS production
[5]
  morphological changes induced by serum deprivation (TEM): retards most of the effects observed in serum deprived cells
[6]
  production of collagen I: increased amounts
[7]
  production of fibronectin: increased amounts
[8]
  production of laminin: increased amounts
[9]
  production of vitronectin: increased amounts
[10]
  Stability (circular dichroism): remains stable
